Assay results taken from PMC11971462, “Generation and validation of a novel multitarget small molecule in glioblastoma” (Cell Death & Disease, 2025).

Test system: GNS166 cells
Assay: Label-free proteomics differential expression
Format: cell-based, human
Protocol: Proteomic studies were performed by the Proteomics Facility of the CIC bioGUNE by label-free relative quantification on nLC MS/MS. […] In both approaches, the top 20 enriched terms were plotted and the pathways were clustered using divisive hierarchical clustering based on pairwise Jaccard distances.

SMILES: C#CCN(Cc1cc2cc(OCCCN3CCCCC3)ccc2n1S(=O)(=O)c1ccccc1)C(=O)CCCCCCC(=O)NO [DDI]
- LogFC CAF1B_HUMAN (protein Q13112 GN=CHAF1B): -1.512
- LogFC STK3_HUMAN (protein Q13188 GN=STK3): 0.6701
- Direction MD2L1_HUMAN (protein Q13257): Down
- LogFC MD2L1_HUMAN (protein Q13257): -1.113
- LogFC PABP4_HUMAN (protein Q13310 GN=PABPC4): -0.5988
- Direction MTA1_HUMAN (protein Q13330): Down
- LogFC MTA1_HUMAN (protein Q13330): -1.705
- Direction 2A5G_HUMAN (protein Q13362): Down
- LogFC 2A5G_HUMAN (protein Q13362): -1.224
- Direction SQSTM_HUMAN (protein Q13501): Down
- LogFC SQSTM_HUMAN (protein Q13501): -1.0987
- LogFC TBB3_HUMAN (protein Q13509 GN=TUBB3): 0.7942
- LogFC PKD2_HUMAN (protein Q13563 GN=PKD2): -0.7081
- LogFC TRA2A_HUMAN (protein Q13595 GN=TRA2A): -0.7095
- LogFC TBB2A_HUMAN (protein Q13885 GN=TUBB2A): 0.9316
- LogFC IDI1_HUMAN (protein Q13907 GN=IDI1): 0.7277
- Direction CKAP5_HUMAN (protein Q14008): Down
- LogFC CKAP5_HUMAN (protein Q14008): -0.6393
- Direction PDE1C_HUMAN (protein Q14123): Down
- LogFC PDE1C_HUMAN (protein Q14123): -1.117
- Direction EIF3A_HUMAN (protein Q14152): Down
- LogFC EIF3A_HUMAN (protein Q14152): -0.389
- Direction UBP2L_HUMAN (protein Q14157): Down
- LogFC UBP2L_HUMAN (protein Q14157): -0.8648
- LogFC TTL12_HUMAN (protein Q14166 GN=TTLL12): 0.5228
- Direction DOCK1_HUMAN (protein Q14185): Down
- LogFC DOCK1_HUMAN (protein Q14185): -1.615
- Direction DYHC1_HUMAN (protein Q14204): Down
- LogFC DYHC1_HUMAN (protein Q14204): -0.3165
- Direction NUCG_HUMAN (protein Q14249): Down
- LogFC NUCG_HUMAN (protein Q14249): -2.036
- Direction FLOT2_HUMAN (protein Q14254): Down
- LogFC FLOT2_HUMAN (protein Q14254): -1.186
- Direction GAS6_HUMAN (protein Q14393): Down
- LogFC GAS6_HUMAN (protein Q14393): -2.504
- LogFC PLSI_HUMAN (protein Q14651 GN=PLS1): 1.442
- Direction SMC1A_HUMAN (protein Q14683): Down
- LogFC SMC1A_HUMAN (protein Q14683): -0.5055
- LogFC LPIN1_HUMAN (protein Q14693 GN=LPIN1): 0.9551
- Direction UBP10_HUMAN (protein Q14694): Down
- LogFC UBP10_HUMAN (protein Q14694): -0.9311
- Direction KIF22_HUMAN (protein Q14807): Down
- LogFC KIF22_HUMAN (protein Q14807): -3.469
- LogFC CHD4_HUMAN (protein Q14839 GN=CHD4): -0.985
- Direction IMB1_HUMAN (protein Q14974): Down
- LogFC IMB1_HUMAN (protein Q14974): -0.6185
- Direction CND2_HUMAN (protein Q15003): Down
- LogFC CND2_HUMAN (protein Q15003): -1.758
- LogFC SART3_HUMAN (protein Q15020 GN=SART3): -0.5999
- Direction CND1_HUMAN (protein Q15021): Down
- LogFC CND1_HUMAN (protein Q15021): -2.0518
- Direction SNX17_HUMAN (protein Q15036): Down
- LogFC SNX17_HUMAN (protein Q15036): -1.453
- Direction SYK_HUMAN (protein Q15046): Down
- LogFC SYK_HUMAN (protein Q15046): -0.4877
- Direction OXA1L_HUMAN (protein Q15070): Down
- LogFC OXA1L_HUMAN (protein Q15070): -1.062
- LogFC PMVK_HUMAN (protein Q15126 GN=PMVK): 1.337
- Direction PLEC_HUMAN (protein Q15149): Down
- LogFC PLEC_HUMAN (protein Q15149): -0.7
- LogFC NECT1_HUMAN (protein Q15223 GN=NECTIN1): -1.589
- Direction LRC41_HUMAN (protein Q15345): Down
- LogFC LRC41_HUMAN (protein Q15345): -1.0607
- LogFC KS6A1_HUMAN (protein Q15418 GN=RPS6KA1): 1.988
- LogFC PP1R7_HUMAN (protein Q15435 GN=PPP1R7): 0.5315
- LogFC MARE2_HUMAN (protein Q15555 GN=MAPRE2): 3.286
- LogFC CIP4_HUMAN (protein Q15642 GN=TRIP10): 1.0065
- Direction PCH2_HUMAN (protein Q15645): Down
- LogFC PCH2_HUMAN (protein Q15645): -0.9654
- Direction MSMO1_HUMAN (protein Q15800): Down
- LogFC MSMO1_HUMAN (protein Q15800): -0.8085
- LogFC STXB2_HUMAN (protein Q15833 GN=STXBP2): 0.5821
- Direction PKN2_HUMAN (protein Q16513): Down
- LogFC PKN2_HUMAN (protein Q16513): -0.7145
- Direction DDB1_HUMAN (protein Q16531): Down
- LogFC DDB1_HUMAN (protein Q16531): -0.3715
- LogFC DPYL2_HUMAN (protein Q16555 GN=DPYSL2): 0.9356
- LogFC UBE2S_HUMAN (protein Q16763 GN=UBE2S): -1.229
- LogFC CP51A_HUMAN (protein Q16850 GN=CYP51A1): -0.6587
- LogFC CGT_HUMAN (protein Q16880 GN=UGT8): 1.956
- LogFC TRXR1_HUMAN (protein Q16881 GN=TXNRD1): 0.6582
- Direction NICA_HUMAN (protein Q92542): Down
- LogFC NICA_HUMAN (protein Q92542): -1.398
- Direction TM9S4_HUMAN (protein Q92544): Down
- LogFC TM9S4_HUMAN (protein Q92544): -1.2661
- LogFC TBCD5_HUMAN (protein Q92609 GN=TBC1D5): -0.4214
- LogFC NU205_HUMAN (protein Q92621 GN=NUP205): -0.751
- Direction PXDN_HUMAN (protein Q92626): Down
- LogFC PXDN_HUMAN (protein Q92626): -0.8349
- Direction AP2C_HUMAN (protein Q92754): Down
- LogFC AP2C_HUMAN (protein Q92754): -1.895
- Direction SYMPK_HUMAN (protein Q92797): Down
- LogFC SYMPK_HUMAN (protein Q92797): -0.8433
- LogFC KIFA3_HUMAN (protein Q92845 GN=KIFAP3): 1.431
- Direction ARHG1_HUMAN (protein Q92888): Down
- LogFC ARHG1_HUMAN (protein Q92888): -0.7775
- Direction ARHG2_HUMAN (protein Q92974): Down
- LogFC ARHG2_HUMAN (protein Q92974): -0.6456
- LogFC USP9X_HUMAN (protein Q93008 GN=USP9X): 0.7813
- Direction CUL5_HUMAN (protein Q93034): Down
- LogFC CUL5_HUMAN (protein Q93034): -0.617
- LogFC VPP1_HUMAN (protein Q93050 GN=ATP6V0A1): 1.447
- Direction MED12_HUMAN (protein Q93074): Down
- LogFC MED12_HUMAN (protein Q93074): -2.0643
- Direction KPBB_HUMAN (protein Q93100): Down
- LogFC KPBB_HUMAN (protein Q93100): -2.118
- Direction SEC62_HUMAN (protein Q99442): Down
- LogFC SEC62_HUMAN (protein Q99442): -2.138
- LogFC VAT1_HUMAN (protein Q99536 GN=VAT1): 1.276
- Direction NUP88_HUMAN (protein Q99567): Down
- LogFC NUP88_HUMAN (protein Q99567): -0.8011
- LogFC NEUS_HUMAN (protein Q99574 GN=SERPINI1): 4.964
- LogFC DNJC7_HUMAN (protein Q99615 GN=DNAJC7): -0.8769
- Direction MGST2_HUMAN (protein Q99735): Down
- LogFC MGST2_HUMAN (protein Q99735): -1.016
